Test results published in patent publication US8148391B2 (Cephalon, Inc., priority 2006, dated 2012).

Tests used:
[1] = molecular target: T1, c-Met (cytoplasmic domain) (Homo sapiens, UniProt P08581); assay: c-Met Kinase Assay (same methods as for ALK, with modifications); format: biochemical; settings: c-Met kinase inhibition, 1 μM ATP; read-out: cMet Activity
T1 construct: 10 ng/mL c-Met (cytoplasmic domain, Invitrogen Corporation #PV3143); purchased Invitrogen Corporation PV3143
Summary of the method: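 Plates were coated with phospholipase C-γ substrate (10 μg/mL) in TBS, and the reaction was started with 10 ng/mL c-Met cytoplasmic domain and run 15 min at 37 °C. Phosphoproduct was detected with Eu-N1-labelled PT66 antibody. IC50 came from a variable-slope sigmoidal fit of percent inhibition vs log concentration.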

[2] = molecular target: T2, baculovirus-expressed ALK (Homo sapiens, UniProt Q9UM73); assay: ALK Kinase Assay (ELISA-type, time-resolved fluorescence); format: biochemical; settings: ALK kinase inhibition, 1 μM ATP; read-out: ALK Activity
T2 construct: host or cells: baculovirus expression system
Summary of the method: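 Plates coated with phospholipase C-γ substrate (10 μg/mL in TBS); reaction started with 30 ng/ml ALK and run 15 min at 37° C. Phosphorylated substrate detected with Eu-N1-labeled PT66 antibody. IC50 from sigmoidal variable-slope fit of percent inhibition vs log concentration.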

T2 sequence (Q9UM73 19-1620): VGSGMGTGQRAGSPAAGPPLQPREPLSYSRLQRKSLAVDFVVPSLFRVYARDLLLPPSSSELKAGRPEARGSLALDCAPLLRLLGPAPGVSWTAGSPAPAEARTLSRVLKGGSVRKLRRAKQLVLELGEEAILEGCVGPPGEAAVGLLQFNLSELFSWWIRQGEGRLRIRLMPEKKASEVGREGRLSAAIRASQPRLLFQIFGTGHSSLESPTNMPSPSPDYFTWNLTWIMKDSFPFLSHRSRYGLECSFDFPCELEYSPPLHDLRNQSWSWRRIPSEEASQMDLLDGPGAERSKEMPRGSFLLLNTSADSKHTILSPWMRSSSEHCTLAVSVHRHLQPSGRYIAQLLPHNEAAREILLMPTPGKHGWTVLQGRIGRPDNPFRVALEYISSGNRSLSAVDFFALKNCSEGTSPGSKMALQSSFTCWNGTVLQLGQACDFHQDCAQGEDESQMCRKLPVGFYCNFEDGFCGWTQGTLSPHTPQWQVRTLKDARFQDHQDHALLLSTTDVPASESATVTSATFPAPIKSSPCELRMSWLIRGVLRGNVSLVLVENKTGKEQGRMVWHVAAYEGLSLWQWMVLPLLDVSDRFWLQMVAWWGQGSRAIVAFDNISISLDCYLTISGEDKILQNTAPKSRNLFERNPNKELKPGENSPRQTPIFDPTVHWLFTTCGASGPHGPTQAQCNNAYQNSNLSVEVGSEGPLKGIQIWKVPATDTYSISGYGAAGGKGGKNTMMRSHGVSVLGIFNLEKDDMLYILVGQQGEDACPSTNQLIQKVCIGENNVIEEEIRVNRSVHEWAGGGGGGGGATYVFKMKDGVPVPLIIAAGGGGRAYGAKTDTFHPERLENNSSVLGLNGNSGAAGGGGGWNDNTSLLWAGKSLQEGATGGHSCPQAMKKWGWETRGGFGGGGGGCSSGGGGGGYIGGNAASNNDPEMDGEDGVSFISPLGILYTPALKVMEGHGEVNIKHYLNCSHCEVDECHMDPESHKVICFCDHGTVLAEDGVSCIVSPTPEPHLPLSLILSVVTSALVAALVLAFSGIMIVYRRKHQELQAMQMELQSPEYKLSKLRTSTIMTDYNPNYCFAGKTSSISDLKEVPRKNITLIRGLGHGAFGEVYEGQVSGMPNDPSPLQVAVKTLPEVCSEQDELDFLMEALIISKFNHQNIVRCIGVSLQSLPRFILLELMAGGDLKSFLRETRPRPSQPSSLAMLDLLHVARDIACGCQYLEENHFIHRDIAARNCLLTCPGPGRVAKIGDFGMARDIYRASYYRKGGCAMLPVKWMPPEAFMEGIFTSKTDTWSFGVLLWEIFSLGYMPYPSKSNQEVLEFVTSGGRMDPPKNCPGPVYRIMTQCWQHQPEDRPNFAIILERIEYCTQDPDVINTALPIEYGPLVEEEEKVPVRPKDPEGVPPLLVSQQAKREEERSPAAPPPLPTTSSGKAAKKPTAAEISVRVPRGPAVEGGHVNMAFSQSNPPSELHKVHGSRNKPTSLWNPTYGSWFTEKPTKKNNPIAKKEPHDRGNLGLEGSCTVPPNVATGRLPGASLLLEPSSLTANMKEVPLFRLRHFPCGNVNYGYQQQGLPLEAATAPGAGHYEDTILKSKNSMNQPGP
T1 sequence (P08581 956-1390 limits assumed): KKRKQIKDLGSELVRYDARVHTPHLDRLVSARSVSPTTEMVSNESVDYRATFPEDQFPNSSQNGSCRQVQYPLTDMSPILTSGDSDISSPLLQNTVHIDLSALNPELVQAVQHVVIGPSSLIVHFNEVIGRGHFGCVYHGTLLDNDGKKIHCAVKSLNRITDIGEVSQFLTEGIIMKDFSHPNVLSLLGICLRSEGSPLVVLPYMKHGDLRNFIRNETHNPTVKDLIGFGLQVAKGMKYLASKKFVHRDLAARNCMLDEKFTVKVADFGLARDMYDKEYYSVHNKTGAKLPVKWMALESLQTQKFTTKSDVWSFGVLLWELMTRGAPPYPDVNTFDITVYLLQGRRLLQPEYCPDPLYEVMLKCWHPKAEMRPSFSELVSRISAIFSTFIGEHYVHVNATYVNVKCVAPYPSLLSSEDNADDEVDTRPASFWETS

| SMILES | IC50 [1] | IC50 [2] |
| --- | --- | --- |
| CN1C(=O)OCCc2cc(Nc3ncc(Cl)c(Nc4ccccc4-c4nccn4C)n3)ccc21 [Example 1749, 2-{5-chloro-4-[2-(1-methyl-1H-imidazol-2-yl)-phenylamino]-pyrimidin-2-ylamino}-5-methyl-8,9-dihydro-5H-7-oxa-5-aza-benzocyclohepten-6-one] | 0.1 to 1 µM | < 0.1 µM |
| CNC(=O)c1cc(C)cc(C)c1Nc1nc(Nc2ccc3c(c2)CCOC(=O)N3C)ncc1Cl [Example 1750, 2-[5-Chloro-2-(5-methyl-6-oxo-5,6,8,9-tetrahydro-7-oxa-5-aza-benzocyclohepten-2-ylamino)-pyrimidin-4-ylamino]-3,5,N-trimethyl-benzamide] | < 0.1 µM | 1 to 10 µM |
| CNC(=O)c1cccc(Br)c1Nc1nc(Nc2ccc3c(c2)CCOC(=O)N3C)ncc1Cl [Example 1751, 3-Bromo-2-[5-chloro-2-(5-methyl-6-oxo-5,6,8,9-tetrahydro-7-oxa-5-aza-benzocyclohepten-2-ylamino)-pyrimidin-4-ylamino]-N-methyl-benzamide] | < 0.1 µM | 1 to 10 µM |
| CNC(=O)c1cc(F)ccc1Nc1nc(Nc2ccc3c(c2)CCOC(=O)N3C)ncc1Cl [Example 1752, 2-[5-Chloro-2-(5-methyl-6-oxo-5,6,8,9-tetrahydro-7-oxa-5-aza-benzocyclohepten-2-ylamino)-pyrimidin-4-ylamino]-5-fluoro-N-methyl-benzamide] | < 0.1 µM | < 0.1 µM |
| CNC(=O)c1cccc(C(F)(F)F)c1Nc1nc(Nc2ccc3c(c2)CCOC(=O)N3C)ncc1Cl [Example 1753, 2-[5-Chloro-2-(5-methyl-6-oxo-5,6,8,9-tetrahydro-7-oxa-5-aza-benzocyclohepten-2-ylamino)-pyrimidin-4-ylamino]-N-methyl-3-trifluoromethyl-benzamide] | 0.1 to 1 µM | > 10 µM |
| CNC(=O)c1ccc(C(F)(F)F)cc1Nc1nc(Nc2ccc3c(c2)CCOC(=O)N3C)ncc1Cl [Example 1754, 2-[5-Chloro-2-(5-methyl-6-oxo-5,6,8,9-tetrahydro-7-oxa-5-aza-benzocyclohepten-2-ylamino)-pyrimidin-4-ylamino]-N-methyl-4-trifluoromethyl-benzamide] | 0.1 to 1 µM | 0.1 to 1 µM |
| CNC(=O)c1c(C)cccc1Nc1nc(Nc2ccc3c(c2)CCOC(=O)N3C)ncc1Cl [Example 1755, 2-[5-Chloro-2-(5-methyl-6-oxo-5,6,8,9-tetrahydro-7-oxa-5-aza-benzocyclohepten-2-ylamino)-pyrimidin-4-ylamino]-6,N-dimethyl-benzamide] | 0.1 to 1 µM | 0.1 to 1 µM |
| CNC(=O)c1c(F)cccc1Nc1nc(Nc2ccc3c(c2)CCOC(=O)N3C)ncc1Cl [Example 1756, 2-[5-Chloro-2-(5-methyl-6-oxo-5,6,8,9-tetrahydro-7-oxa-5-aza-benzocyclohepten-2-ylamino)-pyrimidin-4-ylamino]-6-fluoro-N-methyl-benzamide] | < 0.1 µM | < 0.1 µM |
| CNC(=O)c1ccc(Cl)c(Cl)c1Nc1nc(Nc2ccc3c(c2)CCOC(=O)N3C)ncc1Cl [Example 1757, 3,4-Dichloro-2-[5-chloro-2-(5-methyl-6-oxo-5,6,8,9-tetrahydro-7-oxa-5-aza-benzocyclohepten-2-ylamino)-pyrimidin-4-ylamino]-N-methyl-benzamide] | < 0.1 µM | 0.1 to 1 µM |
| CNC(=O)c1cc(F)cc(Cl)c1Nc1nc(Nc2ccc3c(c2)CCOC(=O)N3C)ncc1Cl [Example 1758, 3-Chloro-2-[5-chloro-2-(5-methyl-6-oxo-5,6,8,9-tetrahydro-7-oxa-5-aza-benzocyclohepten-2-ylamino)-pyrimidin-4-ylamino]-5-fluoro-N-methyl-benzamide] | < 0.1 µM | 1 to 10 µM |
| CNC(=O)c1scc(C)c1Nc1nc(Nc2ccc3c(c2)CCOC(=O)N3C)ncc1Cl [Example 1759, 3-[5-Chloro-2-(5-methyl-6-oxo-5,6,8,9-tetrahydro-7-oxa-5-aza-benzocyclohepten-2-ylamino)-pyrimidin-4-ylamino]-4-methyl-thiophene-2-carboxylic acid methylamide] | < 0.1 µM | 1 to 10 µM |
| C#CCNC(=O)c1sccc1Nc1nc(Nc2ccc3c(c2)CCOC(=O)N3C)ncc1Cl [Example 1760, 3-[5-Chloro-2-(5-methyl-6-oxo-5,6,8,9-tetrahydro-7-oxa-5-aza-benzocyclohepten-2-ylamino)-pyrimidin-4-ylamino]-thiophene-2-carboxylic acid prop-2-ynylamide] | < 0.1 µM | 0.1 to 1 µM |
| CNC(=O)c1sc(C(C)(C)C)cc1Nc1nc(Nc2ccc3c(c2)CCOC(=O)N3C)ncc1Cl [Example 1761, 5-tert-Butyl-3-[5-chloro-2-(5-methyl-6-oxo-5,6,8,9-tetrahydro-7-oxa-5-aza-benzocyclohepten-2-ylamino)-pyrimidin-4-ylamino]-thiophene-2-carboxylic acid methylamide] | 1 to 10 µM | 1 to 10 µM |
| COC(=O)c1sc(-c2ccccc2)c(C)c1Nc1nc(Nc2ccc3c(c2)CCOC(=O)N3C)ncc1Cl [Example 1762, 3-[5-Chloro-2-(5-methyl-6-oxo-5,6,8,9-tetrahydro-7-oxa-5-aza-benzocyclohepten-2-ylamino)-pyrimidin-4-ylamino]-4-methyl-5-phenyl-thiophene-2-carboxylic acid methyl ester] | > 10 µM | > 10 µM |
| CC(C)[C@@H](Nc1nc(Nc2ccc3c(c2)CCOC(=O)N3C)ncc1Cl)C(N)=O [Example 1763, (R)-2-[5-Chloro-2-(5-methyl-6-oxo-5,6,8,9-tetrahydro-7-oxa-5-aza-benzocyclohepten-2-ylamino)-pyrimidin-4-ylamino]-3-methyl-butyramide] | 1 to 10 µM | 1 to 10 µM |
| CC(C)[C@H](Nc1nc(Nc2ccc3c(c2)CCOC(=O)N3C)ncc1Cl)C(N)=O [Example 1764, (S)-2-[5-chloro-2-(5-methyl-6-oxo-5,6,8,9-tetrahydro-7-oxa-5-aza-benzocyclohepten-2-ylamino)-pyrimidin-4-ylamino]-3-methyl-butyramide] | > 10 µM | 1 to 10 µM |
| CNC(=O)c1ccccc1N(C)c1nc(Nc2ccc3c(c2)CCOC(=O)N3C)ncc1F [Example 1765, 2-{[5-Fluoro-2-(5-methyl-6-oxo-5,6,8,9-tetrahydro-7-oxa-5-aza-benzocyclohepten-2-ylamino)-pyrimidin-4-yl]-methyl-amino}-N-methyl-benzamide] | 1 to 10 µM | > 10 µM |
| CN1C(=O)OCCc2cc(Nc3ncc(Cl)c(Nc4ccccc4-n4cccn4)n3)ccc21 [Example 1766, 2-[5-Chloro-4-(2-pyrazol-1-yl-phenylamino)-pyrimidin-2-ylamino]-5-methyl-8,9-dihydro-5H-7-oxa-5-aza-benzocyclohepten-6-one] | 0.1 to 1 µM | < 0.1 µM |
| CN1C(=O)OCCc2cc(Nc3ncc(Cl)c(Nc4ccccc4-c4cc[nH]n4)n3)ccc21 [Example 1767, 2-{5-Chloro-4-[2-(1H-pyrazol-3-yl)-phenylamino]-pyrimidin-2-ylamino}-5-methyl-8,9-dihydro-5H-7-oxa-5-aza-benzocyclohepten-6-one] | 1 to 10 µM | > 10 µM |
